# Values joined by “and” are separate entries in the source; they are usually repeats but may differ in a detail not shown here. Identical values can stand only once. Inconclusive results and toxic doses are left out.
# Test system: BDF1 mice, C1498 leukemia ip, median survival T/C
# Experiment: NCI In Vivo Anticancer Drug Screen. Data for tumor model C1498 Myeloid Leukemia (intraperitoneal) in B6D2F1 (BDF1) mice
# Conditions: endpoint: median survival time, higher = longer survival
# Description: The antitumor activity of compounds was measured in mice bearing transplantable tumors. Survival or tumor size were measured and the results are expressed as the measurement made in the treated group (T) divided by the measurement made in the vehicle treated control group (C). The tumor model used in this assay is C1498 Myeloid Leukemia (intraperitoneal) in B6D2F1 (BDF1) mice
# [1] = dose: 20.0 mg/kg/injection, schedule: Q01DX010 (ip), vehicle: saline
# [2] = dose: 8.0 mg/kg/injection, schedule: Q01DX010 (ip), vehicle: saline
# [3] = dose: 16.0 mg/kg/injection, schedule: Q01DX010 (ip), vehicle: saline
# [4] = dose: 25.0 mg/kg/injection, schedule: Q01DX010 (ip), vehicle: saline
# [5] = dose: 5.0 mg/kg/injection, schedule: Q01DX010 (ip), vehicle: saline
# [6] = dose: 10.0 mg/kg/injection, schedule: Q01DX010 (ip), vehicle: saline
# [7] = dose: 40.0 mg/kg/injection, schedule: Q01DX010 (ip), vehicle: saline
# [8] = dose: 6.25 mg/kg/injection, schedule: Q01DX010 (ip), vehicle: saline
# [9] = dose: 1.25 mg/kg/injection, schedule: Q01DX010 (ip), vehicle: saline
# [10] = dose: 2.5 mg/kg/injection, schedule: Q01DX010 (ip), vehicle: saline
smiles,measurement,setting,value
CN(C)[C@@H]1C(=O)C(C(N)=O)=C(O)[C@@]2(O)C(=O)C3=C(O)c4c(O)cccc4C[C@H]3C[C@@H]12,T/C,"dose: 7.5 mg/kg/injection, schedule: Q01DX010 (ip), vehicle: saline",105 % of control and 116 % of control
same,T/C,"dose: 15.0 mg/kg/injection, schedule: Q01DX010 (ip), vehicle: saline",110 % of control and 112 % of control
same,T/C,"dose: 30.0 mg/kg/injection, schedule: Q01DX010 (ip), vehicle: saline",95 % of control
same,T/C,"dose: 60.0 mg/kg/injection, schedule: Q01DX010 (ip), vehicle: saline",95 % of control
Cc1cc(N(CCCl)CCCl)ccc1N=Nc1ccccc1C(=O)O,T/C,[1],113 % of control
O=C(Nc1ccc(NC2=NCCN2)cc1)c1ccc(C(=O)Nc2ccc(NC3=NCCN3)cc2)cc1,T/C,"dose: 2.0 mg/kg/injection, schedule: Q01DX010 (ip), vehicle: saline",113 % of control and 123 % of control
same,T/C,[2],172 % of control and 190 % of control
same,T/C,[3],109 % of control and 114 % of control
O=c1[nH]cc(F)c(=O)[nH]1,T/C,[1],159 % of control
same,T/C,"dose: 25.0 mg/kg/injection, schedule: Q01DX009 (ip), vehicle: saline",165 % of control
same,T/C,"dose: 30.0 mg/kg/injection, schedule: Q01DX009 (ip), vehicle: saline",165 % of control
COc1cc(C(=O)O)c2c(c1C)OC(=O)c1c(C)cc(O)c(C=O)c1O2,T/C,[2],100 % of control
same,T/C,[3],108 % of control
same,T/C,"dose: 32.0 mg/kg/injection, schedule: Q01DX010 (ip), vehicle: saline",95 % of control
CS(=O)(=O)OCCCl,T/C,"dose: 18.8 mg/kg/injection, schedule: Q01DX010 (ip), vehicle: saline",90 % of control
same,T/C,"dose: 37.5 mg/kg/injection, schedule: Q01DX010 (ip), vehicle: saline",104 % of control
same,T/C,"dose: 75.0 mg/kg/injection, schedule: Q01DX010 (ip), vehicle: saline",90 % of control
O=c1c(O)cccc2cc(O)c(O)c(O)c12,T/C,[4],90 % of control
same,T/C,"dose: 50.0 mg/kg/injection, schedule: Q01DX010 (ip), vehicle: saline",100 % of control
COc1cc(-c2ccc(Nc3ccccc3C(=O)O)c(OC)c2)ccc1N,T/C,[5],100 % of control
same,T/C,[6],95 % of control and 100 % of control
same,T/C,[1],100 % of control and 105 % of control
same,T/C,[7],118 % of control
Cn1c(N)nc2nc[nH]c2c1=S,T/C,[6],100 % of control
same,T/C,[1],104 % of control
same,T/C,[7],109 % of control
same,T/C,"dose: 80.0 mg/kg/injection, schedule: Q01DX010 (ip), vehicle: saline",109 % of control
Nc1nc(N)c2nc(CNc3ccc(C(=O)NC(CCC(=O)O)C(=O)O)cc3)cnc2n1 (configuration not stated),T/C,"dose: 0.05 mg/kg/injection, schedule: Q01DX010 (ip), vehicle: other",100 % of control and 103 % of control
same,T/C,"dose: 0.1 mg/kg/injection, schedule: Q01DX010 (ip), vehicle: other",92 % of control and 100 % of control
same,T/C,"dose: 0.2 mg/kg/injection, schedule: Q01DX010 (ip), vehicle: other",100 % of control
same,T/C,"dose: 0.4 mg/kg/injection, schedule: Q01DX010 (ip), vehicle: other",92 % of control
O=[n+]1c2c(n([O-])c3ccccc31)-c1cccc3cccc-2c13,T/C,"dose: 3.13 mg/kg/injection, schedule: Q01DX010 (ip), vehicle: saline",90 % of control
same,T/C,[8],90 % of control
same,T/C,"dose: 12.5 mg/kg/injection, schedule: Q01DX010 (ip), vehicle: saline",90 % of control
same,T/C,[4],90 % of control
N=[N+]=CC(=O)OCC(N)C(=O)O (configuration not stated),T/C,[8],150 % of control
N#[N+]c1cnc([O-])[nH]c1=O,T/C,[9],100 % of control
same,T/C,[10],122 % of control
same,T/C,[5],113 % of control
same,T/C,[6],118 % of control
O=C(O)c1[nH]c(=O)[nH]c(=O)c1F,T/C,[9],116 % of control and 118 % of control
same,T/C,[10],122 % of control
same,T/C,[5],158 % of control and 163 % of control
same,T/C,[6],95 % of control and 109 % of control
NC(Cc1ccc(N(CCCl)CCCl)cc1)C(=O)O (configuration not stated),T/C,[5],173 % of control
same,T/C,[6],88 % of control
CC(=O)NC1=C(N2CC2)C(=O)C(NC(C)=O)=C(N2CC2)C1=O,T/C,"dose: 0.13 mg/kg/injection, schedule: Q01DX010 (ip), vehicle: saline",108 % of control
same,T/C,"dose: 125.0 micrograms/kg/injection, schedule: Q01DX010 (ip), vehicle: saline",104 % of control
same,T/C,"dose: 250.0 micrograms/kg/injection, schedule: Q01DX010 (ip), vehicle: saline",109 % of control and 116 % of control
O[C@H](CN1CC1)[C@@H](O)CN1CC1,T/C,"dose: 62.5 micrograms/kg/injection, schedule: Q01DX010 (ip), vehicle: saline",123 % of control
same,T/C,"dose: 500.0 micrograms/kg/injection, schedule: Q01DX010 (ip), vehicle: saline",173 % of control
CS(=O)(=O)OCCN(CCOS(C)(=O)=O)c1ccc(N=O)cc1,T/C,"dose: 0.25 mg/kg/injection, schedule: Q01DX010 (ip), vehicle: saline",122 % of control

# — PubChem BioAssay AID312 (DTP/NCI, 2004)
